ChEMBL document CHEMBL4251687, “Acyl Sulfonamides NaV1.7 Blockers Useful for the Treatment of Pain” (ACS Med Chem Lett, 2018)
Values belong to the compound of their own block, whether it stands above or below them.

What was measured:
Assay type in all cases: cell-based
[1] = target: T1, Sodium channel protein type 9 subunit alpha (Homo sapiens, UniProt Q15858); test: Inhibition of Nav1.7 (unknown origin) expressed in HEK293 cells at -60 mV holding potential measured after 600 secs by patch clamp method
[2] = target: Sodium channel protein type 5 subunit alpha (Homo sapiens, UniProt Q14524); test: Inhibition of Nav1.5 (unknown origin) expressed in HEK293 cells at -40 mV holding potential measured after 600 secs by patch clamp method
[3] = target: T1, Sodium channel protein type 9 subunit alpha; test: Displacement of [3H]-labelled radioligand from human Nav1.7 expressed in HEK293 cells measured after 24 hrs by liquid scintillation counting method

T1 sequence (Q15858 whole entry): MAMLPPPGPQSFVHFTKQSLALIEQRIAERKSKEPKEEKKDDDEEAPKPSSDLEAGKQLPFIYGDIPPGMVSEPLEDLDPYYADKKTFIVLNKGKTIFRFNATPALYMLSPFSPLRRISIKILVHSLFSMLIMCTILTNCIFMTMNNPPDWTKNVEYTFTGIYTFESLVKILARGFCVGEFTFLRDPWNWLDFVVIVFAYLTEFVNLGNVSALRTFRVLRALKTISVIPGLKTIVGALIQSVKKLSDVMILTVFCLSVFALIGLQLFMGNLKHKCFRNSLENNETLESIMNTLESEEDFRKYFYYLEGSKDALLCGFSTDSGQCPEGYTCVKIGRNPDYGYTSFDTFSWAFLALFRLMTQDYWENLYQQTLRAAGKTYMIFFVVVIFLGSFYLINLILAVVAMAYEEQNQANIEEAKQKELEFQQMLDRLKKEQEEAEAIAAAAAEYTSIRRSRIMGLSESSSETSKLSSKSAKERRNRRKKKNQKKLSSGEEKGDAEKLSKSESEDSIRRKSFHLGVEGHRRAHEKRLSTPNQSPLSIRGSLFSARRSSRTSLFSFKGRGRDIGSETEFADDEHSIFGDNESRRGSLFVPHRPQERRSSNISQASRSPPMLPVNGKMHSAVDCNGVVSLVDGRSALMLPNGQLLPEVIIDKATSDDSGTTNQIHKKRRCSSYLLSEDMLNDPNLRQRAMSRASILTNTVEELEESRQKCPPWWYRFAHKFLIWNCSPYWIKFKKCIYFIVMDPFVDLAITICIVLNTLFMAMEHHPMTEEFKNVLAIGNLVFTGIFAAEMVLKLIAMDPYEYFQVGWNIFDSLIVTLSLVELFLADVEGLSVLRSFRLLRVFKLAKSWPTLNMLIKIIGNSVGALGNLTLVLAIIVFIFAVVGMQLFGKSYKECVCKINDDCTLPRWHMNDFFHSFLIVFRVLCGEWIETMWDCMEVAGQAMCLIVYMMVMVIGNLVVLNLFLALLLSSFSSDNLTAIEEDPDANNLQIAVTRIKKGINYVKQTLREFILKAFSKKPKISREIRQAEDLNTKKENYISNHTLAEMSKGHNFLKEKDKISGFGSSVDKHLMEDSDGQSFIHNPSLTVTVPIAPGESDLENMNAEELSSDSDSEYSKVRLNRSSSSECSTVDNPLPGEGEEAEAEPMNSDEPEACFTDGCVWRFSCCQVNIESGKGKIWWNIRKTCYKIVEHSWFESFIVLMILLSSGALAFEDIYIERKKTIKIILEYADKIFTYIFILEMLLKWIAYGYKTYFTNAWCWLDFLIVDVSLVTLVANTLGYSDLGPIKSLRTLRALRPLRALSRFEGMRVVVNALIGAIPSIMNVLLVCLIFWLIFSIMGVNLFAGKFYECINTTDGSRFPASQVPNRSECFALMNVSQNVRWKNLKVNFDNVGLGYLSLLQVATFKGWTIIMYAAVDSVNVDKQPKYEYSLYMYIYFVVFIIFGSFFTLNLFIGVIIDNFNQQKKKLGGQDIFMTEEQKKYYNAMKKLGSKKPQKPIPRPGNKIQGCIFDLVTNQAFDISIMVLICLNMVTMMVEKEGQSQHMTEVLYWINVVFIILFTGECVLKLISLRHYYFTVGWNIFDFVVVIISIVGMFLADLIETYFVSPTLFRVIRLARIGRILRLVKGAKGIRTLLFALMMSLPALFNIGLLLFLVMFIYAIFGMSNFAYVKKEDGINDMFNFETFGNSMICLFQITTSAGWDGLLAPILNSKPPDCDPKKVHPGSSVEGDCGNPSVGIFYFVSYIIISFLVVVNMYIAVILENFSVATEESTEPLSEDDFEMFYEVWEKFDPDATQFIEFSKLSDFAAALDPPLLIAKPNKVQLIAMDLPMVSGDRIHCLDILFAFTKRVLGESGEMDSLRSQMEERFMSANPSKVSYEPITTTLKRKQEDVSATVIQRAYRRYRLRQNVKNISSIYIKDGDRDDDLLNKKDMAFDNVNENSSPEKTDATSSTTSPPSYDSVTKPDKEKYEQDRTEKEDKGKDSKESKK
Sequence of Sodium channel protein type 5 subunit alpha (Q14524 whole entry): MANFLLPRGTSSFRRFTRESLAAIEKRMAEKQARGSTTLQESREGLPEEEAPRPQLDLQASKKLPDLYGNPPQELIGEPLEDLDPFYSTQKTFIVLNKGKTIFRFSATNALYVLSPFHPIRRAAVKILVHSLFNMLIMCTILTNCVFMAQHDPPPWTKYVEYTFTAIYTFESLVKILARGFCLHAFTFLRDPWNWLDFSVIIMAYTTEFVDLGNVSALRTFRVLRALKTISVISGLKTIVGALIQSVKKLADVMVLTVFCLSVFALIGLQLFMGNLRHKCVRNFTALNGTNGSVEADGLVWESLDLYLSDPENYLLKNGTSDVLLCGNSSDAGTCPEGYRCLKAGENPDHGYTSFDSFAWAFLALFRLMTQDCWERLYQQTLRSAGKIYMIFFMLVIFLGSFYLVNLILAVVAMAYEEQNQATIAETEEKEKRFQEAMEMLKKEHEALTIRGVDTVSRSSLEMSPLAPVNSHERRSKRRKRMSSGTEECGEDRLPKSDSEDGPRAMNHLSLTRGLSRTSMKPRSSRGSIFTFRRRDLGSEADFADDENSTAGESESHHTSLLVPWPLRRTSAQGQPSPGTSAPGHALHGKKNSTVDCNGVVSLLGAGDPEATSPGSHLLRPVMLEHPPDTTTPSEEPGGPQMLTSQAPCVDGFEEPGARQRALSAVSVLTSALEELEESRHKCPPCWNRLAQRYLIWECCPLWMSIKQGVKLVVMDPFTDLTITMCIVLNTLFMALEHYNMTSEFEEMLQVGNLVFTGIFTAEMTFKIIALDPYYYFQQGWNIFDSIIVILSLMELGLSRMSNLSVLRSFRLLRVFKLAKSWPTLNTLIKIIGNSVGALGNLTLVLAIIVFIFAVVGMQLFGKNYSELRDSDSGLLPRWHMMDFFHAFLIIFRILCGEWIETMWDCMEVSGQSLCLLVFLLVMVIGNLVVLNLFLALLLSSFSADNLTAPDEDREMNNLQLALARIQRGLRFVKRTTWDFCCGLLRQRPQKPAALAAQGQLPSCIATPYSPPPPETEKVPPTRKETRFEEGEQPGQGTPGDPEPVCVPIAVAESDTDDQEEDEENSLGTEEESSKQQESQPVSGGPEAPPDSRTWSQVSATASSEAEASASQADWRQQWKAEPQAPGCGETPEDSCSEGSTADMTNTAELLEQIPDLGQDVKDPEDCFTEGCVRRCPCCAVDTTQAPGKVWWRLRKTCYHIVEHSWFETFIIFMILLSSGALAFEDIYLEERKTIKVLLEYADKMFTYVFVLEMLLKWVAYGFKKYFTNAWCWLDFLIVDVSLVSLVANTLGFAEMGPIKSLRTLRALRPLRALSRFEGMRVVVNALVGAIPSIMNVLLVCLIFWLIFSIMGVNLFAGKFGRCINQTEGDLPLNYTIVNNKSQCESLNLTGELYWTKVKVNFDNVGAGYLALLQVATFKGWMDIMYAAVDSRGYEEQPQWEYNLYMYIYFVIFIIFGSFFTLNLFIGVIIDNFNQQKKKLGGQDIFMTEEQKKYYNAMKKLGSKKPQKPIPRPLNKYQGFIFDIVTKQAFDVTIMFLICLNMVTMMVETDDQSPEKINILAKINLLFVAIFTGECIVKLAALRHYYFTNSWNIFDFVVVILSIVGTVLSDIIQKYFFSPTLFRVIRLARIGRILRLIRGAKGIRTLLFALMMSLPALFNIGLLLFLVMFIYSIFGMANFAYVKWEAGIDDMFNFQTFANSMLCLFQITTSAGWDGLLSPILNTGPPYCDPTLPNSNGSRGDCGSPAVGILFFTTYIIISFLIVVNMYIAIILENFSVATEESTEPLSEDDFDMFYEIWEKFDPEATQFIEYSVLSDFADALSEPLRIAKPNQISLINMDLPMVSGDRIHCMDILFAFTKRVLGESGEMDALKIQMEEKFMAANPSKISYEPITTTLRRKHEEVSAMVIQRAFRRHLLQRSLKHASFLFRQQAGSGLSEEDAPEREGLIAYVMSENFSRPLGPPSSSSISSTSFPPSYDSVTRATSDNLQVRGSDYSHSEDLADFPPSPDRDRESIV

IC50 [1]: 0.09 µM
SMILES: CC(C)COc1ncc(-c2cn(C)c3cc(C(=O)NS(C)(=O)=O)ccc23)cc1Cl

SMILES: Cn1cc(-c2ccc(C(F)(F)F)cc2)c2cc(F)c(C(=O)NS(C)(=O)=O)cc21
IC50 [2]: 30 µM

IC50 [3]: 0.046 µM
SMILES: Cn1cc(-c2ccc(C(F)F)cc2)c2cc(F)c(C(=O)NS(=O)(=O)C3CC3)cc21
